Source: PMC11642016 (International Journal of Molecular Sciences, 2024)
“And” between values parts separate entries of the source, which are not always exact repeats. Equal entries are not always repeated. Where two headings read alike, the source gives them in different places.

Tests used:
[1] = test system: PANC-1, Fadu, A2058 and EBC-1 cell lines; set-up: method as in PMID 35455465; conditions: 10 µM; cited from earlier work
[2] = CellTiter-Glo luminescent cell viability assay, primary fibroblasts; conditions: human, primary skin fibroblasts (non-tumorous), Primer fibroblast Cell viability (% of controll), 72 h, dose–response, individual replicates
[3] = test system: non-tumorous primary fibroblast cells; experiment: as above; conditions: for Primer fibroblast Cell viability (% of controll): dose–response, individual replicates
PANC-1 cells = experiment: CellTiter-Glo luminescent cell viability assay, PANC-1; conditions: for viability at 2.8 µM: read-out: Cell Viability (% of Control) 2.8 µM, PANC-1; for viability at 2.8 µM / viability at 8.3 µM / viability at 25 µM: mean ± SD, n = 2; for viability at 8.3 µM: read-out: Cell Viability (% of Control) 8.3 µM, PANC-1; for viability at 25 µM: read-out: Cell Viability (% of Control) 25 µM, PANC-1
PANC-1 and Fadu cells = experiment: CellTiter-Glo viability, statements covering both cancer cell lines; assay type: cell-based, human; conditions: Homo sapiens; 25 µM; in either of the cancer cell lines; read-out: drop in viability at 25 µM
Description: The effects of the synthesized compounds on cell viability were measured using the CellTiter-Glo® luminescent cell viability assay (Promega, Madison, WI, USA), according to the manufacturer’s instructions. […] After seeding, cells were incubated for a further 48 h before treatment. Cells were treated with the compounds for 72 h. […] After treatment, the luminescence signal was recorded using a microplate reader (BioTek Synergy 2 Multi-Mode Reader, BioTek, Winooski, VT, USA).

Fadu cells = experiment: CellTiter-Glo luminescent cell viability assay, Fadu; conditions: for viability at 2.8 µM: read-out: Cell Viability (% of Control) 2.8 µM, Fadu; for viability at 2.8 µM / viability at 8.3 µM / viability at 25 µM: mean ± SD, n = 2; for viability at 8.3 µM: read-out: Cell Viability (% of Control) 8.3 µM, Fadu; for viability at 25 µM: read-out: Cell Viability (% of Control) 25 µM, Fadu
PANC-1 and A2058 cells = test system: PANC-1 and A2058 cells; set-up: method as in PMID 35455465; conditions: 24 h exposure time; cited from earlier work
[4] = 1 μM, 72 h, dose–response, individual replicates
[5] = 1.5 μM, 72 h, dose–response, individual replicates
[6] = 2.3 μM, 72 h, dose–response, individual replicates
[7] = 3.4 μM, 72 h, dose–response, individual replicates
[8] = 5.1 μM, 72 h, dose–response, individual replicates
[9] = 7.7 μM, 72 h, dose–response, individual replicates
[10] = 17.3 μM, 72 h, dose–response, individual replicates
[11] = 26 μM, 72 h, dose–response, individual replicates
[12] = Homo sapiens, PANC-1, 72 h, 72 h, first-set screening
[13] = Homo sapiens, PANC-1, 72 h, 72 h, second-set screening
[14] = Homo sapiens, FaDu, 72 h, 72 h, first-set screening
[15] = Homo sapiens, FaDu, 72 h, 72 h, second-set screening

For NCC#Cc1ccc(CN2C(=O)C3=C(CCN(Cc4ccc(-n5cc(-c6ccccc6)nn5)cc4)C3)N3CCN=C23)cc1 [I/B, reference compound], the “viable cells after treatment in colony formation assays” value [1] is given as “no viable cells could be observed”, the viability at 72 h, 0.7 µM ([2]; 0.7 μM) is given as 93% and the viability at 72 h, 1 µM ([2]; 1 μM) is given as 99%. It also gave a viability at 72 h, 1.5 µM ([2]; 1.5 μM) of 105%, a viability at 72 h, 2.3 µM ([2]; 2.3 μM) of 100% and a viability at 72 h, 3.4 µM ([2]; 3.4 μM) of 101%. It also gave a viability at 72 h, 5.1 µM ([2]; 5.1 μM) of 104%, a viability at 72 h, 7.7 µM ([2]; 7.7 μM) of 92% and a viability at 72 h, 17.3 µM ([2]; 17.3 μM) of 0%. For the same molecule, the viability at 72 h, 26 µM ([2]; 26 μM) was 0%, the “Primer fibroblast Cell viability (% of controll)” value ([3]; 0.7 μM, 72 h) was 98 % of controll and 97 % of controll and the “Primer fibroblast Cell viability (% of controll)” value ([3]; 1.5 μM, 72 h) was 108 % of controll and 98 % of controll. For the same molecule, the “Primer fibroblast Cell viability (% of controll)” value ([3]; 2.3 μM, 72 h) was 107 % of controll and 98 % of controll, the “Primer fibroblast Cell viability (% of controll)” value ([3]; 3.4 μM, 72 h) was 109 % of controll and 98 % of controll and the “Primer fibroblast Cell viability (% of controll)” value ([3]; 5.1 μM, 72 h) was 110 % of controll and 98 % of controll. For the same molecule, the “Primer fibroblast Cell viability (% of controll)” value ([3]; 7.7 μM, 72 h) was 107 % of controll, the “Primer fibroblast Cell viability (% of controll)” value ([3]; 17.3 μM, 72 h) was 0 % of controll and the “Primer fibroblast Cell viability (% of controll)” value ([3]; 26 μM, 72 h) was 0 % of controll. It also gave an IC50 ([3]; Homo sapiens, Fibroblast, 72 h, read-out: IC50 Value ± SEM Primary Fibroblast, 72 h treatment, best-fit values, n = 3) of 11 ± 0.65 µM, an IC50 ([3]; Homo sapiens, Fibroblast, read-out: Primary fibroblast IC50 values, Mean, mean of independently fitted replicate IC50 values (Supplement S.6), ONC201 value mathematically estimated from inflection point) of 11.2 µM and an IC50 ([3]; Homo sapiens, Fibroblast, read-out: Primary fibroblast IC50 values, individual replicates n1-n3, IC50 independently determined for each replicate (Supplement S.6), ONC201 value mathematically estimated from inflection point, viability stayed above 50%) of 11.1 µM. For the same molecule, the IC50 ([3]; read-out: Primary fibroblast IC50 values, individual replicates n1-n3, IC50 independently determined for each replicate (Supplement S.6), ONC201 value mathematically estimated from inflection point, viability stayed above 50%) was 11.1 µM and 11.4 µM, the “PANC-1 Cell viability (% of controll)” value (PANC-1 cells; 0.7 μM, 72 h, dose–response, individual replicates) was 106 % of controll and 104 % of controll and the “PANC-1 Cell viability (% of controll)” value (PANC-1 cells; [4]) was 106 % of controll and 107 % of controll. The “PANC-1 Cell viability (% of controll)” value (PANC-1 cells; [5]) was 111 % of controll, the “PANC-1 Cell viability (% of controll)” value (PANC-1 cells; [6]) was 113 % of controll and the “PANC-1 Cell viability (% of controll)” value (PANC-1 cells; [7]) was 113 % of controll. The “PANC-1 Cell viability (% of controll)” value (PANC-1 cells; [8]) was 109 % of controll and 116 % of controll, the “PANC-1 Cell viability (% of controll)” value (PANC-1 cells; [9]) was 72 % of controll and 90 % of controll and the “PANC-1 Cell viability (% of controll)” value (PANC-1 cells; [10]) was 0 % of controll. For the same molecule, the “PANC-1 Cell viability (% of controll)” value (PANC-1 cells; [11]) was 0 % of controll, the viability at 2.8 µM (PANC-1 cells; [12]) was 113 ± 4% and the viability at 2.8 µM (PANC-1 cells; [13]) was 113 ± 4%. The viability at 8.3 µM (PANC-1 cells; [12]) was 61 ± 22%, the viability at 8.3 µM (PANC-1 cells; [13]) was 61 ± 22% and the viability at 25 µM (PANC-1 cells; [12]) was 0%. It also gave a viability at 25 µM (PANC-1 cells; [13]) of 0%, an IC50 (PANC-1 cells; Homo sapiens, PANC-1, 72 h, read-out: IC50 Value ± SEM PANC-1, 72 h treatment, best-fit values, n = 3) of 8.2 ± 0.41 µM and a viability at 0.7 µM (PANC-1 cells; Homo sapiens, PANC-1, 72 h, read-out: PANC-1 Cell viability (% of controll), 0.7 μM, 72 h, dose–response, individual replicates) of 102%. The viability at 1 µM (PANC-1 cells; Homo sapiens, PANC-1, 72 h, read-out: PANC-1 Cell viability (% of controll), 1 μM, 72 h, dose–response, individual replicates) was 111%, the viability at 1.5 µM (PANC-1 cells; Homo sapiens, PANC-1, 72 h, read-out: PANC-1 Cell viability (% of controll), 1.5 μM, 72 h, dose–response, individual replicates) was 111% and the viability at 2.3 µM (PANC-1 cells; Homo sapiens, PANC-1, 72 h, read-out: PANC-1 Cell viability (% of controll), 2.3 μM, 72 h, dose–response, individual replicates) was 112%. The viability at 3.4 µM (PANC-1 cells; Homo sapiens, PANC-1, 72 h, read-out: PANC-1 Cell viability (% of controll), 3.4 μM, 72 h, dose–response, individual replicates) was 108%, the viability at 5.1 µM (PANC-1 cells; Homo sapiens, PANC-1, 72 h, read-out: PANC-1 Cell viability (% of controll), 5.1 μM, 72 h, dose–response, individual replicates) was 112% and the viability at 7.7 µM (PANC-1 cells; Homo sapiens, PANC-1, 72 h, read-out: PANC-1 Cell viability (% of controll), 7.7 μM, 72 h, dose–response, individual replicates) was 72%. The viability at 17.3 µM (PANC-1 cells; Homo sapiens, PANC-1, 72 h, read-out: PANC-1 Cell viability (% of controll), 17.3 μM, 72 h, dose–response, individual replicates) was 0%, the viability at 26 µM (PANC-1 cells; Homo sapiens, PANC-1, 72 h, read-out: PANC-1 Cell viability (% of controll), 26 μM, 72 h, dose–response, individual replicates) was 0% and the IC50 (PANC-1 cells; Homo sapiens, PANC-1, read-out: PANC-1 IC50 values, Mean, mean of independently fitted replicate IC50 values (Supplement S.6)) was 8.19 µM. For the same molecule, the IC50 (PANC-1 cells; Homo sapiens, PANC-1, read-out: PANC-1 IC50 values, individual replicates n1-n3, IC50 independently determined for each replicate measurement (Supplement S.6)) was 8.43 µM, the “Selectivity Index (SI) Fibroblast/PANC-1” value (PANC-1 cells; ratio of mean best-fit IC50 for primary fibroblasts and best-fit IC50 for PANC-1) was 1.3 and the IC50 (PANC-1 cells; read-out: PANC-1 IC50 values, individual replicates n1-n3, IC50 independently determined for each replicate measurement (Supplement S.6)) was 7.99 µM and 8.15 µM. For the same molecule, the viability at 25 µM (PANC-1 and Fadu cells) was 0 to 1%, the “Fadu Cell viability (% of controll)” value (Fadu cells; [4]) was 116 % of controll and the “Fadu Cell viability (% of controll)” value (Fadu cells; [5]) was 108 % of controll and 114 % of controll. For the same molecule, the “Fadu Cell viability (% of controll)” value (Fadu cells; [6]) was 112 % of controll, the “Fadu Cell viability (% of controll)” value (Fadu cells; [7]) was 112 % of controll and the “Fadu Cell viability (% of controll)” value (Fadu cells; [8]) was 107 % of controll. The “Fadu Cell viability (% of controll)” value (Fadu cells; [9]) was 100 % of controll and 97 % of controll, the “Fadu Cell viability (% of controll)” value (Fadu cells; [10]) was 0 % of controll and the “Fadu Cell viability (% of controll)” value (Fadu cells; [11]) was 0 % of controll. For the same molecule, the viability at 2.8 µM (Fadu cells; [14]) was 112 ± 7%, the viability at 2.8 µM (Fadu cells; [15]) was 112 ± 7% and the viability at 8.3 µM (Fadu cells; [14]) was 103 ± 6%. The viability at 8.3 µM (Fadu cells; [15]) was 103 ± 6%, the viability at 25 µM (Fadu cells; [14]) was 0% and the viability at 25 µM (Fadu cells; [15]) was 0%. It also gave a viability at 0.7 µM (Fadu cells; Homo sapiens, FaDu, 72 h, read-out: Fadu Cell viability (% of controll), 0.7 μM, 72 h, dose–response, individual replicates) of 106%, a viability at 1 µM (Fadu cells; Homo sapiens, FaDu, 72 h, read-out: Fadu Cell viability (% of controll), 1 μM, 72 h, dose–response, individual replicates) of 112% and a viability at 1.5 µM (Fadu cells; Homo sapiens, FaDu, 72 h, read-out: Fadu Cell viability (% of controll), 1.5 μM, 72 h, dose–response, individual replicates) of 109%. It also gave a viability at 2.3 µM (Fadu cells; Homo sapiens, FaDu, 72 h, read-out: Fadu Cell viability (% of controll), 2.3 μM, 72 h, dose–response, individual replicates) of 110%, a viability at 3.4 µM (Fadu cells; Homo sapiens, FaDu, 72 h, read-out: Fadu Cell viability (% of controll), 3.4 μM, 72 h, dose–response, individual replicates) of 105% and a viability at 5.1 µM (Fadu cells; Homo sapiens, FaDu, 72 h, read-out: Fadu Cell viability (% of controll), 5.1 μM, 72 h, dose–response, individual replicates) of 104%. For the same molecule, the viability at 7.7 µM (Fadu cells; Homo sapiens, FaDu, 72 h, read-out: Fadu Cell viability (% of controll), 7.7 μM, 72 h, dose–response, individual replicates) was 93%, the viability at 17.3 µM (Fadu cells; Homo sapiens, FaDu, 72 h, read-out: Fadu Cell viability (% of controll), 17.3 μM, 72 h, dose–response, individual replicates) was 0% and the viability at 26 µM (Fadu cells; Homo sapiens, FaDu, 72 h, read-out: Fadu Cell viability (% of controll), 26 μM, 72 h, dose–response, individual replicates) was 0%. It also gave an IC50 (Fadu cells; Homo sapiens, FaDu, 72 h, read-out: IC50 Value ± SEM Fadu, 72 h treatment, best-fit values, n = 3) of 10.3 ± 0.17 µM, an IC50 (Fadu cells; Homo sapiens, FaDu, read-out: Fadu IC50 values, Mean, mean of independently fitted replicate IC50 values (Supplement S.6)) of 10.4 µM and an IC50 (Fadu cells; Homo sapiens, FaDu, read-out: Fadu IC50 values, individual replicates n1-n3, IC50 independently determined for each replicate measurement (Supplement S.6)) of 11 µM. For the same molecule, the “Selectivity Index (SI) Fibroblast/Fadu” value (Fadu cells; ratio of mean best-fit IC50 for primary fibroblasts and best-fit IC50 for Fadu) was 1.1, the IC50 (Fadu cells; read-out: Fadu IC50 values, individual replicates n1-n3, IC50 independently determined for each replicate measurement (Supplement S.6)) was 9.91 µM and 10.2 µM and the apoptosis induction (PANC-1 and A2058 cells) was “far more efficient in apoptosis induction than ONC201”.
